Source: publication PMC11450741, “Functional Characterization of an Arylsulfonamide-Based Small-Molecule Inhibitor of the NLRP3 Inflammasome” (ACS Chemical Neuroscience, 2024)

Target: T1, NLRP3 (Mus musculus, UniProt Q8R4B8)
T1 construct: full length recombinant NLRP3 protein (N-Flag, expressed in Expi293F cells)
Assay: intrinsic fluorescence spectroscopy titration (ex […]/em […] nm); supported by Western blot thermal shift ([…] to […] °C)
Type: binding

T1 sequence (Q8R4B8 whole entry): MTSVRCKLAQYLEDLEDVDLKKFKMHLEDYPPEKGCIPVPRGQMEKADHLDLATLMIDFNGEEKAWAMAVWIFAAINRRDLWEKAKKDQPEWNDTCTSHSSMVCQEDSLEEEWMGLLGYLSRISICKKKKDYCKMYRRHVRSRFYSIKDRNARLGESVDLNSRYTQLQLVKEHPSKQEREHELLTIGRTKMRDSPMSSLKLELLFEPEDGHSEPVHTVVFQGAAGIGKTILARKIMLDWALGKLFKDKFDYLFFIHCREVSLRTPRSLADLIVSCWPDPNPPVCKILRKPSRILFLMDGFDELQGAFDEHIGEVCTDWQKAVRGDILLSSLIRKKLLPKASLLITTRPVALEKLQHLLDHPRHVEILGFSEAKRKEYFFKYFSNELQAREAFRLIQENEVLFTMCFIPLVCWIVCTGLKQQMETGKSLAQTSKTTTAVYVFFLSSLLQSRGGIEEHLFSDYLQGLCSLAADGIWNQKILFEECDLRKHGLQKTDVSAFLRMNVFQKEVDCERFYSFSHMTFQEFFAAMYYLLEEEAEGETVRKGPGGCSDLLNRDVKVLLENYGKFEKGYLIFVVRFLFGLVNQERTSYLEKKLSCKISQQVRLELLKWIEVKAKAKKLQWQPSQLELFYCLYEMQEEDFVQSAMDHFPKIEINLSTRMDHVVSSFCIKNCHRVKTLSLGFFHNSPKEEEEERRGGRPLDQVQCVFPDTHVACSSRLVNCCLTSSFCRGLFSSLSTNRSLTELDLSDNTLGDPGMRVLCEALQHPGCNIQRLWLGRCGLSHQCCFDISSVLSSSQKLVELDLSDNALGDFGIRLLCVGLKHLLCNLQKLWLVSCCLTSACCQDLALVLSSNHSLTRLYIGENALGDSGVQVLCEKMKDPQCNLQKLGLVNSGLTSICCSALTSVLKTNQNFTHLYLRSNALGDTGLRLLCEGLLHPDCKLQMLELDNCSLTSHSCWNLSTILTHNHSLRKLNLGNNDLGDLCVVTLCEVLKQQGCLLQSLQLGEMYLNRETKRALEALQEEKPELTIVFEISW

Kd: 560 ± 30.3 nM
SMILES: CCCOc1ccc(Cl)cc1CN(CCc1ccc(S(=O)(=O)N2CCOCC2)cc1)C(=O)Cc1ccsc1 [YM-I-26]
